Read-outs that look alike come from different tables or passages of the source. A value given as a limit tells only on which side of the number the result lay.

The conditions of data set [1]: cited from earlier work.
In data set [2] the target is T1, CYP2D6 (Homo sapiens, UniProt P10635).
T1 construct: host or cells: human subjects (endogenous enzyme of gut wall and liver)
As to conditions: humans; cited from earlier work.

Data set [3] is described as follows: Nonclinical proof-of-concept PD study: drug self-administration after CYP2D6 inhibitor plus ibogaine. In kind it is in vivo, rats and/or nonhuman primates. The conditions noted are these: single dose CYP2D6 inhibitor followed by single dose ibogaine. How it is done: Nonclinical proof-of-concept PD studies (rats and/or nonhuman primates):
Dose(s) of CYP2D6 inhibitor based on prior PK studies in the same species are tested. Intravenous drug self-administration studies involve training the animal to emit a response (e.g., lever press) for a non-drug reinforcer (e.g., food) under specific stimulus conditions in the test chamber. Then, the animal undergoes aseptic surgery to place a chronically indwelling intravenous cannula that is connected to a drug infusion system within the test chamber. After surgical recovery, the stimulus conditions in the test chamber now signal the availability of a drug reinforcer (e.g., morphine or cocaine), and lever pressing results in an intravenous infusion of the available drug during daily session. For studies of oral self-administration (e.g., ethanol), animals are trained to self-administer the drug using a lever paradigm (e.g., in which pressing of the lever results in delivery of the drug solution into a drinking cup) or a two-bottle choice […] paradigm (e.g., in which animals are allowed to drink for 24 hours from one bottle containing a drug solution or another bottle containing water). During a test session, vehicle or a dose of CYP2D6 inhibitor is administered prior to a dose of ibogaine and then, responses on the drug-associated lever or the volume of drug solution consumed are measured.

The conditions of data set [4]: in vivo; cited from earlier work.
The conditions of data set [5]: animals, meta-analysis; cited from earlier work.
The conditions of data set [6]: single oral 8-12 mg/kg HCl; cited from earlier work.
The conditions of data set [7]: single oral 10 mg/kg ibogaine, cited from earlier work.
The conditions of data set [8]: cited from earlier work; for plasma exposures with chronic paroxetine: CYP2D6 extensive metabolizers, paroxetine 10-20 mg, single ibogaine 20 mg (about 0.3 mg/kg); for time out to which ibogaine plasma exposures are detectable: single ibogaine 20 mg.
For data set [9] the following is noted: single oral administration, humans; cited from earlier work.
The conditions of data set [10]: oral administration; cited from earlier work.
For data set [11] the following is noted: in vivo; cited from earlier work. This is another data set of the same source.

T1 sequence (P10635 whole entry): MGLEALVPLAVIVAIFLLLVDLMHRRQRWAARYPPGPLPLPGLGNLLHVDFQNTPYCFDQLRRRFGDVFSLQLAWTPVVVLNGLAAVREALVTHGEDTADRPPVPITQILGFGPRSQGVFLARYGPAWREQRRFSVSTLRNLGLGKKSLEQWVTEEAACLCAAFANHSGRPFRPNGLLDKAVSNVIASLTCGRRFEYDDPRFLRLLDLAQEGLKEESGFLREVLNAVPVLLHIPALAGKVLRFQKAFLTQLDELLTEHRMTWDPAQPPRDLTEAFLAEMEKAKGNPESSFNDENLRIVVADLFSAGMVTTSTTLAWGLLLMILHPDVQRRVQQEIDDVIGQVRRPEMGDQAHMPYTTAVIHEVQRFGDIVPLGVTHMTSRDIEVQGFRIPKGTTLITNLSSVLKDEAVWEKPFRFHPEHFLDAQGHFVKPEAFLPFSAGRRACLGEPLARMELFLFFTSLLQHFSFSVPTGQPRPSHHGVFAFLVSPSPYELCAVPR

Regarding `C[C@H]1NC(C)(C)CO[C@]1(O)c1cccc(Cl)c1` [hydroxybupropion], the half-life of metabolite in data set [1] (bupropion metabolites that also inhibit CYP2D6) is 22 to 25 h.

`C=C[C@H]1C[N@@]2CC[C@H]1C[C@@H]2[C@@H](O)c1ccnc2ccc(OC)cc12` [Quinidine, quinidine]: the “in vivo CYP2D6 inhibition” value in [2] was “can inhibit the metabolism of the CYP2D6 substrate debrisoquine in vivo”.

Regarding `CCC1CC2CC3c4[nH]c5ccc(OC)cc5c4CCN(C2)C13` (stereo not shown) [ibogaine, Ibogaine], the “therapeutic-like effects (reduction of drug self-administration) with CYP2D6 inhibitor pretreatment” value in data set [3] is “increases ibogaine's therapeutic-like effects”. For the same molecule, the “time within which visualizations and perceptual changes subside” value in data set [4] was 6 to 8 h. The “self-administration of drugs (opiates, cocaine, ethanol)” value in data set [5] is listed as “reduced self-administration of several drugs”. In data set [6], the “opioid withdrawal signs, craving and mood” value is “reduced opioid withdrawal signs and craving and increased mood”. The “absorbed ibogaine eliminated by 24 hours post dose” value in data set [7] (CYP2D6 extensive metabolizers) is above 90%. In addition, the “exposure in CYP2D6 poor metabolizers compared to extensive metabolizers” value in data set [7] is on record as “modestly increased”. Further, the “plasma exposures with chronic paroxetine” value in data set [8] was “increased plasma exposures”. In addition, the figures for the “time out to which ibogaine plasma exposures are detectable” value in data set [8] (chronic paroxetine 10-20 mg) and in data set [8] (chronic placebo treatment) were 72 h and below 4 h, respectively. Besides, in data set [9], the “time blood concentrations were detectable” value is “about 24 h”. The “time to peak blood concentration” value in data set [9] is listed as “peaked within a couple of hours”. Also, the “cardiac QT interval” value in [10] is “associated with cardiac QT interval prolongation”.

As for `CC(NC(C)(C)C)C(=O)c1cccc(Cl)c1` (stereo not shown) [bupropion], the single-dose half-life in [1] (single dose) was 10 to 15 h.

As to `CNCCC(Oc1ccc(C(F)(F)F)cc1)c1ccccc1` (stereo not shown) [Fluoxetine, fluoxetine], in [11], the half-life entry is on record as “long half-life (days)”.

For `CC[C@H]1C[C@H]2C[C@H]3c4[nH]c5ccc(O)cc5c4CCN(C2)[C@@H]13` [noribogaine], in data set [7] (CYP2D6 extensive metabolizers), the Cmax in blood result is recorded as “in the same range as the parent drug” and the “concentrations at 24 hours” value is “remained elevated”. Besides, the “exposure in CYP2D6 poor metabolizers compared to extensive metabolizers” value in data set [7] is recorded as “markedly decreased”. In addition, the “plasma exposures with chronic paroxetine” value in [8] was “decreased plasma exposures”. For the same molecule, in data set [9], the “time blood concentrations were detectable” value is “detectable for a longer duration” and the “time to peak blood concentration” value is listed as “peaked later”.

(Values after patent US20230100844A1, “IBOGAINE COMBINATION TREATMENT” (ATAI Life Sciences AG, priority 2021, published 2023).)
